Laboratory results as given in patent US6300065A, “Yeast cell surface display of proteins and uses thereof” (Board of Trustees of the University of Illinois, priority 1998, dated 2001).

Legend:
[1] = system: 4-4-20 anti-fluorescein scFv mutant 4M1.2, yeast surface displayed Aga2p fusion; assay: Competitive dissociation of labeled antigen from yeast surface displayed scFv, followed by flow cytometry; format: binding; conditions: 23° C., 5-aminofluorescein as competitor
Method: (§1) Yeast cells bearing plasmid pCT202 were grown and labeled with anti-c-myc mAb 9E10 and FITC-dextran or biotin-fluorescein, as described. A fraction of the labeled population was analyzed flow cytometrically to determine the initial level of fluorescence. Non-fluorescent competitor (5-aminofluorescein) was added to a final concentration of approximately […] (~1000-fold excess) and the FITC or PE fluorescence of the c-myc positive cell population was followed as a function of time at room temperature (21-23° C.) on a Coulter Epics XL. Data were fitted as an exponential decay. The probability that a polyvalent antigen is bound to the cell as a function of time is given by P=1-(1-e^-kt)^N, where N is the valency, k is the kinetic rate constant for dissociation, and t is time. For long times t, this reduces to P=Ne^-kt. Thus, extrapolation of data for long t to time zero yields P=N, or a fluorescence intensity of Fext =N Fo, where Fext is the extrapolated fluorescence at the time of competitor addition and Fo is the actual initial fluorescence.

[2] = system: 4-4-20 anti-fluorescein scFv, wild-type, yeast surface displayed Aga2p fusion; assay: as above; format: binding; conditions: 5-aminofluorescein as competitor
Method: as §1

[3] = system: 4-4-20 anti-fluorescein scFv mutant 4M1.2; assay: Soluble fluorescein dissociation kinetics by spectrofluorometry (fluorescence quenching, whole cells displaying scFv); format: binding; conditions: mutant 4M1.2 vs wild-type 4-4-20 scFv
Method: (§2) Binding to soluble fluorescein (FDS) was assayed by observing fluorescence quenching by whole cells displaying scFv. Cells were suspended at 2×10^7 cells/ml in TBS+0.1% BSA in a quartz cuvette thermostatted at 23° C. and titrated with FDS over a range of 0-7.5 nM. […] Control cells displaying an irrelevant scFv were titrated to obtain a slope for a two-parameter fit of an equilibrium binding model to the data, yielding equilibrium constants and effective scFv concentrations. Following the equilibrium titration, 5-aminofluorescein was added to 1 mM and the change in fluorescence of the sample followed with time to determine koff for FDS.

[4] = system: 4-4-20 anti-fluorescein scFv mutant 4M1.1; assay: as above; format: binding; conditions: mutant 4M1.1 vs wild-type 4-4-20 scFv
Method: as §2

[5] = target: 4-4-20 anti-fluorescein antibody; conditions: stated in discussion, no method given; cited from earlier work

In the case of O=C(CCCCCNC(=O)CCCC[C@@H]1SC[C@@H]2NC(=O)N[C@@H]21)NCCCCCNC(=S)Nc1ccc2c(c1)C(=O)OC21c2ccc(O)cc2Oc2cc(O)ccc21 [fluorescein-biotin], the koff for fluorescein-biotin [1] is reported as 0.0028 s⁻¹, the “monovalent dissociation rate constant (koff) for fluorescein-biotin” value ([2]; 21° C.) is reported as 0.0039 s⁻¹ and the koff for fluorescein-biotin ([2]; 23° C., wild-type) is reported as 0.005 s⁻¹.

For O=C1OC2(c3ccc(O)cc3Oc3cc(O)ccc32)c2ccccc21 [fluorescein], the “improvement of soluble fluorescein dissociation kinetics relative to wild-type” value [3] is given as 2.2 fold, the “improvement of soluble fluorescein dissociation kinetics relative to wild-type” value [4] is given as 2.2 fold and the Kd [5] is given as 400 pM.
